Key:
Format in all cases: cell-based
HCC827 cells [1] = assay: Resazurin conversion cell viability/proliferation assay in HCC827 cells; conditions: for overall effects on cell viability and mitochondrial function (summary): cultured cells, relatively high dosage
Experimental: (§1) Non-small cell lung cancer cells, HCC827 (ATCC) were cultured in RPMI-1640 Glutamax medium (Sigma-Aldrich St. Louis, Mo., USA), under conventional culture conditions. Media was supplemented with 10% Fetal Bovine Serum (FBS), 1% glutamine and 1% streptomycin/penicillin (Sigma-Aldrich). HeLaNRF1/c4 reporter cells were cultured in Dulbecco's Modified Eagle's Medium (DMEM) supplemented with 10% FBS, 2 mM L-Glutamine, 100 u/ml penicillin/streptomycin (Sigma-Aldrich,). Incubation was done at 37° C. in 5% CO2.
(§2) Cell viability/proliferation was determined by the resazurin conversion assay. A total of 4000 cells were seeded in each of the 96-well plates in 100 μl of medium. After 3 hours of incubation, 100 μl of fresh medium with respective concentration of the desired compound or controls were added. Resazurin solution (Sigma-Aldrich) was added (10%, v/v in PBS) after 1 or 3 day treatment, followed by 3 hour incubation at 37° C. and 5% CO2. Resazurin fluorescence (excitation, 540 nm; emission, 590 nm) was measured and measurements were corrected for background signals. […] Relative viability was calculated from percent fluorescence relative to DMSO-treated control wells.

[2] = tested on: HeLaNRF1/c4 reporter cells; assay: Resazurin conversion assay in HeLaNRF1/c4 reporter cells; conditions: test compounds 30 μM and 60 μM, long treatment
Experimental: as §1, §2
In order to investigate if some of the compounds induce metabolic adaptations involving mitochondrial biogenesis, we employed the HeLaNRF1/c4 reporter cells in which activation of the transcription factor NRF1 triggers expression of GFP. Since adaptations of mitochondrial biogenesis are known to require some days to develop, we used a relatively low dosage (30 μM and 60 μM) of the compounds, to allow longer treatment period compared to the previous short term experiments.

[3] = tested on: HeLaNRF1/c4 reporter cells; assay: Gene expression (qPCR) in HeLaNRF1/c4 reporter cells; conditions: long-term treatment
Experimental: The HeLaNRF1/c4 reporter cells were employed to investigate effects of the modified fatty acids on NRF1-regulated mitochondrial biogenesis. The cells (250,000) were seeded in T75 flasks and incubated for 3 hours to allow attachment. The compounds were dissolved in DMSO and diluted in culture medium to provide the final concentration. DMSO at a concentration equivalent to the highest compound concentration was added to control cultures. Resveratrol and AICAR were used as positive controls. Resveratrol has not previously been tested in this reporter model, but we found it relevant to include it for purposes of experimental and mechanistic comparisons. After 3 days of treatment the media was replaced with fresh media containing the corresponding compound. On day 5, the cells were harvested and the cultures split into three fractions: One fraction was used for detection of mitoGFP expression by flow cytometry, to assess effects on NRF-1 regulated mitochondrial biogenesis. Flow cytometry analysis was performed as previously described. Another fraction was used for extraction of RNA and subsequent gene expression analysis using quantitative PCR (see below). The last fraction was employed to investigate effects on mitochondrial respiratory function by extracellular flux analysis (described above). The experiment was replicated three times.
Total RNA was extracted from harvested cells (RNAeasy kit Qiagen, Hilden, Germany). The RNA content was quantified on Nanodrop 1000 Spectrophotometer (Thermo Scientific). From 1 μg total RNA, cDNA was synthesized using High-Capacity Reverse Transcription Kit (Applied Biosystems, Carlsbad, Calif., US). Gene quantification was done using TaqMan probes for gene expression assays (Applied Biosystems). Probes used were: PGC1α (PPARG coactivator 1α), Hs00173304_m1; HIF1α (hypoxia inducible factor 1α), Hs00153153_m1; PDK1 (pyruvate dehydrogenase kinase 1), Hs01561847_m1; PDK4, (pyruvate dehydrogenase kinase 4), Hs01037712_m1; SIRT4 (sirtuin 4) Hs01015516_g1; ACOX1 (acyl-CoA oxidase 1) Hs01074241_m1; as reference genes, we used; Eukaryotic 18S rRNA Hs99999901_s1; actin beta Hs99999903_m1. Fold change was calculated as geometric mean of ΔΔCt of the two reference genes.

HCC827 cells [4] = assay: Mitochondria respiration assay (OCR, extracellular flux) in HCC827 cells
Experimental: as §1
Mitochondria function was analyzed by measuring oxygen consumption rate (OCR) by extracellular flux analysis in a Seahorse XFe96 instrument (Agilent Seahorse XF Technologies). The measurements were performed in DADA basic media without phenol red, supplemented with L-glutamine (2 mM), pyruvate (2 mM), and sodium chloride, NaCl (32 mM) (Sigma-Aldrich). Respiratory rates were measured following sequential additions of glucose (10 mM), oligomycin, carbonyl cyanide m-chlorophenyl hydrazine (CCCP) and a mixture of rotenone (1 μM) and antimycin A (1 μM). Before carrying out the measurements for each cell model, optimizations were done for; cell number, CCCP, and oligomycin concentrations. For the HCC 827 cell model optimal conditions were; 30,000 cells/well, 0.5 μM CCCP, and 3 μM Oligomycin; and in HeLaNRF1/c4 reporter cell model; 20,000 cells/well, 1 μM CCCP and 3 μM Oligomycin. The OCR measured initially (before any additions) represented the rate ‘basal respiration.’ The addition of ATP synthase inhibitor oligomycin provided oxygen consumption independent of ATP production (‘leak activity’). Maximal respiration (also referred to as ‘respiratory capacity’) was measured upon addition of the uncoupler CCCP. […] After the extracellular flux analysis the analysis plates were washed with Phosphate Buffered Saline (PBS) and frozen at −80° C. The BCA assay (Pierce BCA protein assay kit, Thermo Fisher Scientific, Waltham, Mass. USA) was employed to measure the protein content in the wells. To evaluate the effects of the different treatments, the respiratory rates from compound-treated wells were normalized to protein content, and calculated as percentage of the average respiratory rate of the DMSO-treated control wells. All treatments were performed with 6-8 replicate wells.

Row | SMILES | overall effects on cell viability and mitochondrial function (summary) (HCC827 cells [1]) | resazurin conversion [2] | PDK4 expression [3] | viability (resazurin conversion) (HCC827 cells [1]; HCC827 cells, 200 μM) | uncoupled respiratory capacity after CCCP (HCC827 cells [4]) | leak respiration after oligomycin (HCC827 cells [4]; 100 μM TTA, 200 μM 2-triple TTA, 30 μM TDG) | basal respiratory rate (OCR) (HCC827 cells [4]; compared to control)
1 | CCCC(SCC)C(=O)O (stereo not drawn) [2-(ethylthio) pentanoic acid, 2-(ethylthio)pentanoic acid] | only minor effects | – | – | – | – | – | –
2 | C#CCCCCCCCCCCCNCC(=O)O [2-triple TDG, N-(tridec-12-yn-yl) glycine] | harmful effects were significantly reduced | no significant effect | moderate effect | – | – | – | –
3 | CC#CCCCCCCCCCCCSCC(=O)O [2-triple TTA, 2-(Tetradec-12-yn-1-ylthio)acetic acid] | harmful effects were significantly reduced | little or no effect | moderate effect | moderate antiproliferative effect | stronger dose-dependent effect | significantly increased | –
4 | Oc1ccc(C=Cc2cc(O)cc(O)c2)cc1 [resveratrol, Resveratrol, reference compound] | – | moderate reduction | – | – | – | – | little or no effect

— patent publication US20220249525A1, “Fatty Acid Compounds for Prevention and Treatment of Neurodegenerative Disorders” (T OMEGA AS, priority 2019, published 2022)
